From patent US20260199294A1, “PEPTIDE DRUG CONJUGATES” (Oncopeptides Innovation AB, priority 2022, published 2026)

Legend:
[1] = system: mitochondrial DNA (mtDNA) prepared from MM.1S cells; test: Direct DNA damage, PCR amplification with mtDNA primers; assay type: biochemical, human; settings: 0.25 μM compound, 30 minutes at 37° C.
Protocol: (§1) Method: DNA was prepared from MM.1S cells by QIAGEN genomic tip 20/G according to protocol described in Furda et al., Methods Mol Biol, 2012. 1 μg of DNA was treated with 0.25 μM compound for 30 minutes at 37° C. DMSO was used as control treatment. 20 ng of the treated DNA was PCR amplified using Phusion Hot Start II High Fidelity PCR Master Mix (Thermo Scientific) and primers directed to either HPRT or primers directed to mitochondrial DNA (mtDNA) was used, generating 10.4 or 8.9 kb fragments, respectively. The PCR reactions were separated on a 1% agarose gel and visualized by ChemiDoc™ MP Imaging System (BioRad). Example compounds 1, 2 and 38 were investigated, as were compounds 18 and 20, which are metabolites of compound 1. They were compared with bendamustine, melphalan and DMSO control. The results for compounds 1, 2, 18 and 20 with the HPRT primers are shown in FIG. 4(A); the results with the mtDNA primers are shown in FIG. 4(B).

[2] = system: MM.1S cells; test: DNA fragmentation, APO-BrdU TUNEL assay by FACS; assay type: cell-based, human
Protocol: Method: 1×10^6 MM.1S cells (CRL-2974, ATCC) were treated with Example compound 1 or Bendamustine at 0.006, 0.06, 0.6 or 6 μM for 24 h. After incubation, the cells were washed with PBS (10010-015, Gibco), fixed in Flow Cytometry Fixation Buffer (FC004, R&D Systems) for 10 min and stored in 70% ethanol at −20° C. overnight. The deoxythymidine analog (BrdUTP) was present in the experiment and served to label the DNA break sites. Next day, the cells were washed and stained using an APO-BrdU™ TUNEL Assay Kit, according to the manufacturer's protocol (A23210, Invitrogen), followed by the analysis using BD FACSCanto™ II. The percentage ofTUNEL positive cells indicates the percentage of cells with fragmented DNA.

[3] = system: nuclear DNA (HPRT) prepared from MM.1S cells; test: Direct DNA damage, PCR amplification with HPRT primers; assay type: biochemical, human; settings: 0.25 μM compound, 30 minutes at 37° C.
Protocol: as §1

[4] = system: MM.1S cells; test: Cellular retention/efflux: intracellular and extracellular concentrations by LC-MS/MS; assay type: in vitro ADME, human; settings: MM.1S cells, 5, 15 and 60 min; metabolites measured after treatment with the parent Example compound
Protocol: Methods: MM.1S cells at 2×10^6 cells/mL were seeded at 250 μL per well in a 96-well plate. Cells were incubated in the presence of a test compound for 5, 15, and 60 min before pelleting cells by centrifugation at +4° C. for 5 min. Cell media was immediately harvested to a second plate and stored at −80° C. until further analysis. Pelleted cells were washed once with ice cold PBS before storage at −80° C. until further analysis.
Cells were lysed and protein in the media were precipitated using acetonitrile dimethylformamide, 9:1 containing internal standard. Samples were centrifuged and the supernatant was analyzed with LC-MS/MS (ACQUITY UPLC-Xevo TQ-S micro) to determine compound concentration.
Example compound 1, bendamustine and melphalan were used as test compounds.
Method: Method described in Biological example 3.
Example compounds 1, 2, 3, 4, 6, 7 and 10 were investigated. Intracellular metabolites are formed from all compounds tested. The compound used for cell treatment was metabolised to the ester-hydrolysed compound (here called Metabolite A) and to the amide-hydrolysed compound (called Metabolite B). The example compound structures and the structures of the two metabolites for the respective compounds were as shown in Table 4. The Metabolites B formed under the conditions tested were compounds with structure as Examples 17 and 18: […]

[5] = system: hPBMC (Human Peripheral blood mononuclear cells); test: In vitro cytotoxicity (CellTiter-Glo, 72 h) in hPBMC; assay type: cell-based; settings: stimulated with PHA-M and IL-2
Protocol: (§2) All cells were cultivated in RPMI medium 1640 (IX). All media was supplemented with […] penicillin/streptomycin, 10% heat inactivated FBS, 0.1 mM Sodium Pyruvate, 1×MEM NEAA (ThermoFisher) and 1 mM HEPES. The DERL-2 cells had higher FBS (20%) and 40 ng/mL IL-2 was added. hPBMCs were thawed and allowed to acclimatise overnight and then stimulated with 10 µg/mL PHA-M and 40 ng/mL IL-2 for 4 hours before being exposed to test compounds. All cells, except for hPBMCs, were grown to reach log phase before being exposed to the test compounds.
(§3) Test compounds were dissolved in 100% DMSO and added to a 384 assay plate. Additional DMSO was added to maintain the same final DMSO concentration (0.2%) in all wells. 25 μL cell suspension with a concentration of 100000 cells/mL was added to each well. The cells were cultured in a CO2 incubator at 37° C. for 72 h. Plates were equilibrated to room temperature for 30 minutes before adding 20 μL CellTiter-Glo® 2.0 (Promega) reagent to all wells. The plate was then allowed to stabilize for 20 minutes before recording the luminescence (Em filter 700 nm) in an Envision plate reader.

[6] = system: BJ Fibroblasts (normal cells); test: In vitro cytotoxicity (CellTiter-Glo, 72 h) in BJ fibroblasts; assay type: cell-based, human
Protocol: as §2, §3

Cn1c(CCCC(=O)O)nc2cc(N(CCCl)CCCl)ccc21 [Bendamustine, reference compound] was tested, and the “DNA damage on mitochondrial DNA (8.9 kb PCR band)” value (shortened to “DNA damage on mitochondrial DNA”) [1] was “no or very minor effect on DNA damage”, the “cells with DNA breaks” value ([2]; 0.6 μM for 24 h) was “not the case” and the “dose response effect on DNA damage (TUNEL positive cells)” value ([2]; 0.006, 0.06, 0.6 or 6 μM for 24 h) was “no obvious effect”. For the same compound, the “DNA damage on nuclear DNA (HPRT 10.4 kb PCR band)” value (“DNA damage on nuclear DNA” below) [3] was “no or very minor effect on DNA damage”, the “extracellular concentration (media)” value [4] was “quite high and decreased over time” and the intracellular concentration [4] was “Low intracellular concentrations could be detected of bendamustine and the level decreases over time”.

CCOC(=O)[C@H](Cc1ccc(F)cc1)NC(=O)[C@@H](N)CCc1nc2cc(N(CCCl)CCCl)ccc2n1C [Example compound 2, Ethyl (2S)-2-[[(2S)-2-amino-4-[5-[bis(2-chloroethyl)amino]-1-methyl-benzimidazol-2-yl]butanoyl]amino]-3-(4-fluorophenyl)propanoate] was tested, and the IC50 [5] was 7.5 nM, the “DNA damage on mitochondrial DNA” value [1] was “strong DNA damaging effect” and the “DNA damage on nuclear DNA” value [3] was “strong DNA damaging effect”.

With CCOC(=O)[C@H](Cc1nc2cc(N(CCCl)CCCl)ccc2n1C)NC(=O)[C@@H](N)CC(C)C [Example compound 10, Ethyl (2S)-2-[[(2S)-2-amino-4-methyl-pentanoyl]amino]-3-[5-[bis(2-chloroethyl)amino]-1-methyl-benzimidazol-2-yl]propanoate] the IC50 [5] was 26.4 nM.

For CCOC(=O)[C@H](CC(C)C)NC(=O)[C@@H](N)CCc1nc2cc(N(CCCl)CCCl)ccc2n1-c1ccccc1 [Example compound 13, Ethyl (2S)-2-[[(2S)-2-amino-4-[5-[bis(2-chloroethyl)amino]-1-phenyl-benzimidazol-2-yl]butanoyl]amino]-4-methyl-pentanoate], the IC50 [6] was greater than 2000 nM.

In the case of Cl.Cl.Cn1c(CC[C@H](N)C(=O)O)nc2cc(N(CCCl)CCCl)ccc21 [Example compound 18, (S)-2-amino-4-(5-(bis(2-chloroethyl)amino)-1-methyl-1H-benzo[d]imidazol-2-yl)butanoic acid], the “DNA damage on mitochondrial DNA” value [1] is reported as “effectively damaged”, the “DNA damage on nuclear DNA” value [3] is reported as “effectively damaged” and the “extracellular concentration (media)” value [4] is reported as “low levels of it are found in the media outside the cells”. For the same compound, the intracellular concentration [4] was “rapidly formed inside the cells”.

For CC(C)C[C@H](NC(=O)[C@@H](N)CCc1nc2cc(N(CCCl)CCCl)ccc2n1C)C(=O)O [Example compound 20, (2S)-2-[[(2S)-2-amino-4-[5-[bis(2-chloroethyl)amino]-1-methyl-benzimidazol-2-yl]butanoyl]amino]-4-methyl-pentanoic acid], the “DNA damage on mitochondrial DNA” value [1] was “DNA damaging effect but to a lesser degree compared to Example compounds 1, 2 and 18, but greater than Bendamustine or Melphalan” and the “DNA damage on nuclear DNA” value [3] was “DNA damaging effect but to a lesser degree compared to Example compounds 1, 2 and 18, but greater than Bendamustine or Melphalan”.

CC(C)C[C@H](NC(=O)[C@@H](N)CCc1nc2cc(N(CCCl)CCCl)ccc2n1C)C(=O)N(C)C [Example compound 30, (2S)-2-[[(2S)-2-Amino-4-[5-[bis(2-chloroethyl)amino]-1-methyl-benzimidazol-2-yl]butanoyl]amino]-N,N,4-trimethyl-pentanamide] gave an IC50 [6] greater than 2000 nM.

In the case of CCOC(=O)[C@H](Cc1ccc(F)cc1)NC(=O)[C@H](CCc1nc2cc(N(CCCl)CCCl)ccc2n1C)NC(C)=O [Example compound 34, Ethyl (2S)-2-[[(2S)-2-acetamido-4-[5-[bis(2-chloroethyl)amino]-1-methyl-benzimidazol-2-yl]butanoyl]amino]-3-(4-fluorophenyl)propanoate], the IC50 [6] is reported as greater than 2000 nM.

CCOC(=O)[C@@H](N)CCc1nc2cc(N(CCCl)CCCl)ccc2n1C.Cl.Cl [Example compound 38, Ethyl (2S)-2-amino-4-[5-[bis(2-chloroethyl)amino]-1-methyl-benzimidazol-2-yl]butanoate] was tested, and the “DNA damage on mitochondrial DNA” value [1] was “effectively damaged” and the “DNA damage on nuclear DNA” value [3] was “effectively damaged”.

With N[C@@H](Cc1ccc(N(CCCl)CCCl)cc1)C(=O)O [Melphalan, reference compound] the “DNA damage on mitochondrial DNA” value [1] was “no or very minor effect on DNA damage”, the “DNA damage on nuclear DNA” value [3] was “no or very minor effect on DNA damage” and the “extracellular concentration (media)” value [4] was “high and constant throughout the experiment”. For the same compound, the intracellular concentration [4] was “low intracellular concentration”.
